The supplement of paper PMC10307832

Legend:
Assay in all cases: relative viability (nuclei count vs DMSO), 5 days (fraction); higher = more cells survive
CUDC-101 + Olaparib = compound: C#Cc1cccc(Nc2ncnc3cc(OC)c(OCCCCCCC(=O)NO)cc23)c1 [CUDC-101] + O=C(c1cc(Cc2n[nH]c(=O)c3ccccc23)ccc1F)N1CCN(C(=O)C2CC2)CC1 [Olaparib] (partner 8 µM)
Procedure, shortened: (§1)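 Lung cancer cell lines in 1536-well plates got either a single drug or a fixed anchor-drug dose together with five library-drug doses (not always all listed) in √10 steps, by pin tool, on the day after seeding. Nuclei were counted after 5 days, and relative viability is the treated-to-vehicle ratio of nuclei counts. Values are medians of duplicate plates.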

[1] = compound: C1=CC=C2C(=C1)N=C(S2)C(C#N)C3=NC(=NC=C3)NCCC4=CN=CC=C4 + Nc1nc2[nH]cc(CCc3ccc(C(=O)N[C@@H](CCC(=O)O)C(=O)O)cc3)c2c(=O)[nH]1 [Pemetrexed] (partner 0.2 µM)
Procedure, shortened: as §1

Vandetanib + Crizotinib = compound: COc1cc2/c(=N/c3ccc(Br)cc3F)nc[nH]c2cc1OCC1CCN(C)CC1 [Vandetanib] + C[C@@H](Oc1cc(-c2cnn(C3CCNCC3)c2)cnc1N)c1c(Cl)ccc(F)c1Cl [Crizotinib] (partner 1 µM)
Procedure, shortened: as §1

Vandetanib + Pemetrexed = compound: COc1cc2/c(=N/c3ccc(Br)cc3F)nc[nH]c2cc1OCC1CCN(C)CC1 [Vandetanib] + Nc1nc2[nH]cc(CCc3ccc(C(=O)N[C@@H](CCC(=O)O)C(=O)O)cc3)c2c(=O)[nH]1 [Pemetrexed] (partner 0.2 µM)
Procedure, shortened: as §1

| Cell Line | relative viability (CUDC-101 + Olaparib; first compound 0.01 µM) | relative viability (CUDC-101 + Olaparib; first compound 0.03162 µM) | relative viability (CUDC-101 + Olaparib; first compound 0.1 µM) | relative viability (CUDC-101 + Olaparib; first compound 0.3162 µM) | relative viability (CUDC-101 + Olaparib; first compound 1 µM) | relative viability ([1]; first compound 0.005 µM) | relative viability ([1]; first compound 0.01581 µM) | relative viability ([1]; first compound 0.05 µM) | relative viability ([1]; first compound 0.1581 µM) | relative viability ([1]; first compound 0.5 µM) | relative viability (Vandetanib + Crizotinib; first compound 0.02 µM) | relative viability (Vandetanib + Crizotinib; first compound 0.06325 µM) | relative viability (Vandetanib + Crizotinib; first compound 0.2 µM) | relative viability (Vandetanib + Crizotinib; first compound 0.6325 µM) | relative viability (Vandetanib + Crizotinib; first compound 2 µM) | relative viability (Vandetanib + Pemetrexed; first compound 0.02 µM) | relative viability (Vandetanib + Pemetrexed; first compound 0.06325 µM) | relative viability (Vandetanib + Pemetrexed; first compound 0.6325 µM) | relative viability (Vandetanib + Pemetrexed; first compound 2 µM) | relative viability (Vandetanib + Pemetrexed; first compound 0.2 µM) |
| --- | --- | --- | --- | --- | --- | --- | --- | --- | --- | --- | --- | --- | --- | --- | --- | --- | --- | --- | --- | --- |
| SW 1573 | 0.634 | 0.477 | 0.587 | 0.603 | 0.349 | 0.598 | 0.782 | 0.702 | 0.9 | 0.629 | 0.896 | 0.704 | 0.7 | 0.815 | 0.849 | 0.899 | 0.841 | 0.909 | 0.887 | – |
| HCC-78 | 1.01 | 0.688 | 0.821 | 0.584 | 0.341 | 0.793 | 0.886 | 0.92 | 0.92 | 0.784 | 0.318 | 0.352 | 0.328 | 0.331 | 0.257 | 0.88 | 0.889 | 0.873 | 0.901 | 0.893 |
| SK-MES-1 | 0.697 | 0.775 | 0.727 | 0.658 | 0.512 | 0.799 | 0.923 | 0.823 | 1.04 | 0.644 | 1.01 | 0.902 | 0.938 | 0.926 | 0.875 | 1.01 | 0.882 | 0.77 | 0.93 | 0.961 |
| NCI-H2023 | 0.499 | 0.448 | 0.453 | 0.486 | 0.387 | 0.211 | 0.26 | 0.205 | 0.264 | 0.213 | 0.661 | 0.556 | 0.624 | 0.49 | 0.499 | 0.182 | 0.197 | 0.202 | 0.252 | – |
| ChaGo-K-1 | 0.41 | 0.444 | 0.42 | 0.377 | 0.293 | 0.249 | 0.263 | 0.293 | 0.255 | 0.256 | 1.1 | 1.19 | 1.14 | 1.13 | 1.16 | 0.257 | 0.271 | 0.255 | 0.263 | 0.259 |
| NCI-H2126 | 0.875 | 0.919 | 0.905 | 0.968 | 0.787 | 0.577 | 0.73 | 0.652 | 0.69 | 0.726 | 0.983 | 0.964 | 0.99 | 0.97 | 0.959 | 0.658 | 0.632 | 0.669 | 0.651 | 0.715 |
| RERF-LC-KJ | 0.939 | 0.917 | 0.92 | 0.818 | 0.699 | 0.468 | 0.505 | 0.465 | 0.507 | 0.502 | 0.83 | 0.789 | 0.871 | 0.883 | 0.794 | 0.46 | 0.459 | 0.418 | 0.46 | 0.497 |
| NCI-H3122 | 0.61 | 0.647 | 0.625 | 0.598 | 0.558 | 0.187 | 0.197 | 0.206 | 0.214 | 0.194 | 0.291 | 0.257 | 0.266 | 0.261 | 0.249 | 0.192 | 0.196 | 0.202 | 0.208 | 0.201 |
| NCI-H322M | 0.789 | 0.674 | 0.771 | 0.692 | 0.594 | 0.608 | 0.602 | 0.569 | 0.582 | 0.607 | 0.899 | 0.952 | 0.937 | 0.88 | 0.897 | 0.579 | 0.615 | 0.604 | 0.51 | 0.641 |
| NCI-H647 | 0.547 | 0.522 | 0.67 | 0.554 | 0.342 | 0.165 | 0.175 | 0.182 | 0.179 | 0.19 | 1.06 | 1.07 | 1.1 | 1.06 | 0.981 | 0.185 | 0.152 | 0.153 | 0.175 | 0.182 |
| EMC-BAC-2 | 0.493 | 0.485 | 0.485 | 0.532 | 0.376 | 0.488 | 0.442 | 0.414 | 0.477 | 0.429 | 0.764 | 0.778 | 0.432 | 0.765 | 0.708 | 0.473 | 0.44 | 0.427 | 0.459 | 0.448 |
| PC-14 | 0.273 | 0.317 | 0.295 | 0.165 | 0.0702 | 0.155 | 0.133 | 0.106 | 0.136 | 0.148 | 0.94 | 0.853 | 0.897 | 0.386 | 0.231 | 0.133 | 0.115 | 0.179 | 0.165 | 0.123 |
| 201T | 0.867 | 0.817 | 0.806 | 0.8 | 0.793 | 0.348 | 0.337 | 0.349 | 0.313 | 0.357 | 1 | 1.03 | 0.978 | 0.95 | 0.969 | 0.345 | 0.34 | 0.338 | 0.306 | 0.328 |
| LXF-289 | 1.01 | 1.14 | 1.06 | 1.08 | 0.599 | 0.832 | 0.979 | 0.876 | 0.912 | 0.857 | 0.801 | 0.789 | 0.827 | 0.828 | 0.792 | 0.916 | 0.949 | 0.909 | 0.889 | 0.885 |
